Data from US20040071799A1, “Herbal compositions and methods for effecting weight loss in humans” (priority 2001, published 2004).

Tests used:
[1] = in vivo; cited from earlier work
[2] = Female Wistar rats fed high fat diet for 56 days (Example 4); assay type: in vivo
Protocol: Sixty female Wistar rats, averaging 220 g in weight, were randomly allotted to five experimental groups and fed the high fat diet described in Table I below for 56 days. The rats were housed individually in wire mesh cages equipped with an automated watering system. The room housing the rats was maintained at a temperature of 22° to 24° C., with a light-dark cycle of 12 hours each. Following the one-week quarantine period the rats were adapted to handling, and to oral insertion of the gastric intubation device over the next ten days. Water was intubated once a day during this period. After ten days, the rats no longer indicated marked distress during the procedure.
After adaption to the intubation procedure, the diet of Table I was initiated. This diet is comprised of 56% of energy from fat. All treatment and placebo intubations occurred between 1600 and 1800 hours. Individual food intake was measured daily throughout the study. Body weight was measured daily through day 23 and twice weekly thereafter. The experimental period lasted 56 days. Lin, X., M. R. Chavex, R. C. Bruch, et al., J. Nutrition 128:1606-13, 1998.
Referring to Table II below, the five groups consisted of: the control group (n=15), which were fed ad libitum, and were intubated daily with 1 mL of water. The “low dose DRD” (n=10) and the “high dose DRD” (n=15) groups, which were fed ad libitum and administered daily 1 mL of the aqueous extract obtained from 0.75 grams and 1.50 grams of the initial dried herb mixture by intubation, respectively. The “fenfluramine group” (n=10), which was fed ad libitum and received 2 mg/kg fenfluramine in 1 mL of water daily, by intubation, and, finally, a fifth group (n=10) was pair-fed to the high dose DRD group and was administered 1 mL of water daily, by intubation.
Food consumption for all rats was determined daily, and body weights were obtained daily for the first 23 days, and then twice a week for the next 33 days. After 56 days all the rats except five from the control group and five from the high dose DRD group were sacrificed. Trunk blood was collected, and the eviscerated carcasses were homogenized, dried and assayed for body composition. White and brown fat depots, liver, kidney, spleen, heart, and gastrocnemius muscle were weighed. During the 56 days of the experiment, all rats were observed daily by the animal technician, and weekly by a veterinarian, and notations were made regarding physical activity/lethargy, fur condition, skin condition, eye condition, stools, and “others.” There were no noticeable differences among any of the groups with regard to physical activity, skin condition, and eye condition. […] This behavior lasted about one week and then stopped.
The serum was analyzed for insulin, corticosterone and leptin, using standard commercially available immunoassays for the rat. Alkaline phosphatase, alanine aminotransferase, amylase, aspartate aminotransferase, chloride, cholesterol, creatinine phosphokinase, γ-glutamyl transpeptidase, glucose, hemoglobin, hematocrit, mean cell volume, platelets, potassium, sodium, triglycerides, and white blood cells were assayed by standard clinical laboratory methods. All data were pooled by treatment and subjected to a One-Way Analysis of Variance (ANOVA) followed by a Scheffe Comparison of Means analysis (for unbalanced groups). Statistix® for Windows, 1998. Analytical Software, Tallahassee, Fla. 32317.
The rats that were not sacrificed and had previously received the high dose DRD had their treatment withdrawn during a 14-day “recovery period.” On the 15th day of this recovery period these rats, plus five control rats, were sacrificed and all the above analyses were conducted.

[3] = Young growing male Wistar rats fed obesity-inducing diet, 90 days (Example 3); assay type: in vivo; conditions: fenfluramine group
Protocol: Young growing male Wistar rats, of about 220 grams average initial weight, were fed the obesity-inducing diet. Concomitantly, the rats were administered, 1.0 gram DRD, 1.5 grams DRD, or 5.0 grams DRD, by daily intubation, for 90 days. The treatment groups gained 21%, 24% and 47% less weight, respectively, than did the placebo controls. The rats administered fenfluramine gained 22% less weight than did the controls.
Thus, the prevention of weight gain appears to be due to a reduction in fat storage, and that the skeletal muscle had been preserved.

[4] = d-fenfluramine 2 mg/kg, 56 days

Row | SMILES | decrease of the amount of fat absorbed from the diet [1] | Average Final Weight, Gms ± SD. [2, 4] [Gms] | Average Gain, Gms ± SD [2, 4] [Gms] | calories required to cause a one-gram weight gain ([2]; fenfluramine) [calories] | food efficiency: gain in weight per calorie available for gain above maintenance ([2]; fenfluramine) [grams per calorie] | less weight gained than controls ([2]; fenfluramine 2 mg/kg daily, 56th day) [%] | total food consumed ([2]; fenfluramine, 56 day period) | food efficiency lower than controls (grams gain per gram of food ingested) ([2]; fenfluramine, 56 days) [%] | weight gained as fat (body composition) ([2]; fenfluramine, 56 days) | serum leptin ([2]; fenfluramine, end of 56-day treatment) | less weight gained than controls [3] [%]
1 | CCCCCCCCCCC[C@@H](C[C@@H]1OC(=O)[C@H]1CCCCCC)OC(=O)[C@H](CC(C)C)NC=O [Orlistat] | diet by 30%. |  |  |  |  |  |  |  |  |  | 
2 | CCNC(C)Cc1cccc(C(F)(F)F)c1 (centres unmarked) [fenfluramine] |  | 325.7 ± 33.7 | 106.9 ± 22.0 | 18.16 | 0.0545 | 12.3 | consumed less total food over the 56 day period than the controls | 7.8 | gained significantly less fat than did the controls | less leptin than controls | 22
